Source: PubChem BioAssay (NCI)
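1) Cells in 96-well plates. 2) Compound, 48 h, 5 concentrations. 3) Linear interpolation between surrounding doses. 4) Unreached endpoint = highest concentration. At the GI50, growth is halved. At the TGI there is no net growth.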

Legend:
Test in all cases: NCI-60 cell line screen, 48 h
786-0 renal = tested on: 786-0 renal
A498 renal = tested on: A498 renal
A549 NSCLC = tested on: A549 NSCLC
ACHN renal = tested on: ACHN renal
BT-549 breast = tested on: BT-549 breast
CAKI-1 renal = tested on: CAKI-1 renal
CCRF-CEM leukemia = tested on: CCRF-CEM leukemia
COLO 205 colon = tested on: COLO 205 colon
DU-145 prostate = tested on: DU-145 prostate
EKVX NSCLC = tested on: EKVX NSCLC
HCC-2998 colon = tested on: HCC-2998 colon
HCT-116 colon = tested on: HCT-116 colon
HCT-15 colon = tested on: HCT-15 colon
HL-60(TB) leukemia = tested on: HL-60(TB) leukemia
HOP-62 NSCLC = tested on: HOP-62 NSCLC
HOP-92 NSCLC = tested on: HOP-92 NSCLC
HS 578T breast = tested on: HS 578T breast
HT29 colon = tested on: HT29 colon
IGROV1 ovarian = tested on: IGROV1 ovarian
K-562 leukemia = tested on: K-562 leukemia
KM12 colon = tested on: KM12 colon
LOX IMVI melanoma = tested on: LOX IMVI melanoma
M14 melanoma = tested on: M14 melanoma
MALME-3M melanoma = tested on: MALME-3M melanoma
MCF7 breast = tested on: MCF7 breast
MDA-MB-231 breast = tested on: MDA-MB-231 breast
MOLT-4 leukemia = tested on: MOLT-4 leukemia
NCI-H226 lung = tested on: NCI-H226 lung
NCI-H23 lung = tested on: NCI-H23 lung
NCI-H460 lung = tested on: NCI-H460 lung
NCI/ADR-RES ovarian = tested on: NCI/ADR-RES ovarian
OVCAR-3 ovarian = tested on: OVCAR-3 ovarian
OVCAR-4 ovarian = tested on: OVCAR-4 ovarian
OVCAR-5 ovarian = tested on: OVCAR-5 ovarian
OVCAR-8 ovarian = tested on: OVCAR-8 ovarian
PC-3 prostate = tested on: PC-3 prostate
RXF 393 renal = tested on: RXF 393 renal
SF-268 CNS = tested on: SF-268 CNS
SF-295 CNS = tested on: SF-295 CNS
SF-539 CNS = tested on: SF-539 CNS
SK-MEL-2 melanoma = tested on: SK-MEL-2 melanoma
SK-MEL-28 melanoma = tested on: SK-MEL-28 melanoma
SK-MEL-5 melanoma = tested on: SK-MEL-5 melanoma
SK-OV-3 ovarian = tested on: SK-OV-3 ovarian
SN12C renal = tested on: SN12C renal
SNB-19 CNS = tested on: SNB-19 CNS
SNB-75 CNS = tested on: SNB-75 CNS
SR leukemia = tested on: SR leukemia
SW-620 colon = tested on: SW-620 colon
T-47D breast = tested on: T-47D breast
TK-10 renal = tested on: TK-10 renal
U251 CNS = tested on: U251 CNS
UACC-257 melanoma = tested on: UACC-257 melanoma
UO-31 renal = tested on: UO-31 renal

`O=C(O)C1(Cc2cccc(Nc3nccs3)n2)CCC(Oc2cccc(Cl)c2F)CC1` (stereo not drawn) gave a GI50 (786-0 renal) of 15.5 µM, a TGI (786-0 renal) of 40.3 µM and a GI50 (A498 renal) of 3.95 µM. For the same compound, the TGI (A498 renal) was 19.4 µM, the GI50 (A549 NSCLC) was 5.8 µM and the TGI (A549 NSCLC) was > 60 µM. The GI50 (ACHN renal) was 14.4 µM, the TGI (ACHN renal) was > 100 µM and the GI50 (BT-549 breast) was 14.6 µM. For the same compound, the TGI (BT-549 breast) was 32.1 µM, the GI50 (CAKI-1 renal) was 12.4 µM and the TGI (CAKI-1 renal) was 38.8 µM. For the same compound, the GI50 (CCRF-CEM leukemia) was 1.23 µM, the TGI (CCRF-CEM leukemia) was > 55.1 µM and the GI50 (COLO 205 colon) was 0.876 µM. It also gave a TGI (COLO 205 colon) of 19.3 µM, a GI50 (DU-145 prostate) of 14.4 µM and a TGI (DU-145 prostate) of 32.3 µM. It also gave a GI50 (EKVX NSCLC) of 13.6 µM, a TGI (EKVX NSCLC) of 47.4 µM and a GI50 (HCC-2998 colon) of 18.2 µM. For the same compound, the TGI (HCC-2998 colon) was 34.2 µM, the GI50 (HCT-116 colon) was 0.64 µM and the TGI (HCT-116 colon) was 30.5 µM. The GI50 (HCT-15 colon) was 3.34 µM, the TGI (HCT-15 colon) was 25.2 µM and the GI50 (HL-60(TB) leukemia) was 3.43 µM. The TGI (HL-60(TB) leukemia) was > 67.3 µM, the GI50 (HOP-62 NSCLC) was 6.77 µM and the TGI (HOP-62 NSCLC) was 56.2 µM. The GI50 (HOP-92 NSCLC) was 13 µM, the TGI (HOP-92 NSCLC) was 44.7 µM and the GI50 (HS 578T breast) was 10.4 µM. It also gave a TGI (HS 578T breast) of 64 µM, a GI50 (HT29 colon) of 7.56 µM and a TGI (HT29 colon) of 24.2 µM. The GI50 (IGROV1 ovarian) was 15.9 µM, the TGI (IGROV1 ovarian) was 53.1 µM and the GI50 (K-562 leukemia) was 0.468 µM. For the same compound, the TGI (K-562 leukemia) was > 56.5 µM, the GI50 (KM12 colon) was 0.204 µM and the TGI (KM12 colon) was 29.3 µM. It also gave a GI50 (LOX IMVI melanoma) of 7.62 µM, a TGI (LOX IMVI melanoma) of 22.5 µM and a GI50 (M14 melanoma) of 2.96 µM. For the same compound, the TGI (M14 melanoma) was 30.2 µM, the GI50 (MALME-3M melanoma) was 20.5 µM and the TGI (MALME-3M melanoma) was 54.3 µM. The GI50 (MCF7 breast) was 0.329 µM, the TGI (MCF7 breast) was 50.5 µM and the GI50 (MDA-MB-231 breast) was 14.7 µM. The TGI (MDA-MB-231 breast) was 41.6 µM, the GI50 (MOLT-4 leukemia) was 15.7 µM and the TGI (MOLT-4 leukemia) was 63.8 µM. For the same compound, the GI50 (NCI-H226 lung) was 11.6 µM, the TGI (NCI-H226 lung) was 39.6 µM and the GI50 (NCI-H23 lung) was 12.9 µM. For the same compound, the TGI (NCI-H23 lung) was 34.5 µM, the GI50 (NCI-H460 lung) was 0.344 µM and the TGI (NCI-H460 lung) was 19.6 µM. The GI50 (NCI/ADR-RES ovarian) was 3.48 µM, the TGI (NCI/ADR-RES ovarian) was > 65.4 µM and the GI50 (OVCAR-3 ovarian) was 13.3 µM. The TGI (OVCAR-3 ovarian) was 36.4 µM, the GI50 (OVCAR-4 ovarian) was 25.8 µM and the TGI (OVCAR-4 ovarian) was > 100 µM. The GI50 (OVCAR-5 ovarian) was 13.8 µM, the TGI (OVCAR-5 ovarian) was > 81.7 µM and the GI50 (OVCAR-8 ovarian) was 18.9 µM. For the same compound, the TGI (OVCAR-8 ovarian) was > 100 µM, the GI50 (PC-3 prostate) was 17.4 µM and the TGI (PC-3 prostate) was 84.3 µM. It also gave a GI50 (RXF 393 renal) of 0.0488 µM, a TGI (RXF 393 renal) of 12.8 µM and a GI50 (SF-268 CNS) of 25.1 µM. For the same compound, the TGI (SF-268 CNS) was > 100 µM, the GI50 (SF-295 CNS) was 1.31 µM and the TGI (SF-295 CNS) was 27.9 µM. It also gave a GI50 (SF-539 CNS) of 6.73 µM, a TGI (SF-539 CNS) of 24.4 µM and a GI50 (SK-MEL-2 melanoma) of 17.6 µM. The TGI (SK-MEL-2 melanoma) was 36.4 µM, the GI50 (SK-MEL-28 melanoma) was 21.2 µM and the TGI (SK-MEL-28 melanoma) was > 65.2 µM. It also gave a GI50 (SK-MEL-5 melanoma) of 14.8 µM, a TGI (SK-MEL-5 melanoma) of 28.7 µM and a GI50 (SK-OV-3 ovarian) of 12.8 µM. It also gave a TGI (SK-OV-3 ovarian) of 46 µM, a GI50 (SN12C renal) of 11.4 µM and a TGI (SN12C renal) of 46.6 µM. The GI50 (SNB-19 CNS) was 20 µM, the TGI (SNB-19 CNS) was 73.9 µM and the GI50 (SNB-75 CNS) was 11 µM. The TGI (SNB-75 CNS) was 62.2 µM, the GI50 (SR leukemia) was 0.419 µM and the TGI (SR leukemia) was 50.3 µM. The GI50 (SW-620 colon) was 4.31 µM, the TGI (SW-620 colon) was > 58.9 µM and the GI50 (T-47D breast) was 15.8 µM. The TGI (T-47D breast) was > 100 µM, the GI50 (TK-10 renal) was 18.8 µM and the TGI (TK-10 renal) was 61.9 µM. The GI50 (U251 CNS) was 24.4 µM, the TGI (U251 CNS) was > 54.8 µM and the GI50 (UACC-257 melanoma) was 31.6 µM. For the same compound, the TGI (UACC-257 melanoma) was > 81.1 µM, the GI50 (UO-31 renal) was 16.3 µM and the TGI (UO-31 renal) was 79.8 µM.
